ChEMBL document CHEMBL1201862, “PubChem BioAssay data set” (2004)
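Briefly, cells in 96-well plates were exposed to five compound concentrations for 48 h, and endpoints were estimated by linear interpolation. At the GI50, growth is halved.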 Activity calls are given as the source filed them. Cut-off read from the data, not from the text of the source: active = GI50 up to about 1.1 µM and inactive = higher.

Experiments:
Assay in all cases: DTP human tumour cell line panel, 48 h
HCC 2998 = tested on: HCC 2998
UACC-257 = tested on: UACC-257
NCI-H226 = tested on: NCI-H226
MOLT-4 = tested on: MOLT-4
HCT-116 = tested on: HCT-116
OVCAR-3 = tested on: OVCAR-3
NCI-H460 = tested on: NCI-H460
EKVX = tested on: EKVX
SN12C = tested on: SN12C
NCI-H23 = tested on: NCI-H23
HCT-15 = tested on: HCT-15
HL-60 = tested on: HL-60
SF-295 = tested on: SF-295
MDA-N = tested on: MDA-N
Malme-3M = tested on: Malme-3M
MCF7 = tested on: MCF7
OVCAR-8 = tested on: OVCAR-8
SF-539 = tested on: SF-539
NCI-H522 = tested on: NCI-H522

Which results are given for COC(=O)C1(Cc2cccc(Cl)c2)CCCCCCN1C(=O)c1ccccc1 (configuration not stated)?
GI50 (HCC 2998): 13.6 µM (inactive); GI50 (UACC-257): > 10 µM (inactive); GI50 (NCI-H226): 25.1 µM (inactive); GI50 (MOLT-4): 8.89 µM (inactive); GI50 (HCT-116): 13.1 µM (inactive); GI50 (OVCAR-3): 6.71 µM (inactive); GI50 (NCI-H460): 15.2 µM (inactive); GI50 (EKVX): 12 µM (inactive); GI50 (SN12C): 14.5 µM (inactive); GI50 (NCI-H23): 17.2 µM (inactive); GI50 (HCT-15): 11.5 µM; GI50 (HL-60): 5.97 µM (inactive); GI50 (SF-295): 6.98 µM (inactive); GI50 (MDA-N): 16.5 µM (inactive); GI50 (Malme-3M): 12.2 µM (inactive); GI50 (MCF7): 13.5 µM (inactive); GI50 (OVCAR-8): 16.6 µM (inactive)

Which results are given for CN(C)c1ccc(/C=N/C23CC4CC(CC(C4)C2)C3)cc1?
GI50 (HCC 2998): > 100 µM (inactive); GI50 (UACC-257): > 100 µM (inactive); GI50 (NCI-H226): > 100 µM (inactive); GI50 (MOLT-4): > 100 µM (inactive); GI50 (HCT-116): > 100 µM (inactive); GI50 (OVCAR-3): > 100 µM (inactive); GI50 (NCI-H460): > 100 µM (inactive); GI50 (EKVX): > 100 µM (inactive); GI50 (SN12C): > 100 µM (inactive); GI50 (NCI-H23): > 100 µM (inactive); GI50 (HCT-15): > 100 µM; GI50 (HL-60): > 100 µM (inactive); GI50 (SF-295): > 100 µM (inactive); GI50 (Malme-3M): > 100 µM (inactive); GI50 (SF-539): > 100 µM (inactive); GI50 (NCI-H522): > 100 µM (inactive); GI50 (OVCAR-8): > 100 µM (inactive)

Which results are given for C=CC1=C(C)/C(=C/C2=NC(=C\c3[nH]c(CC4NC(=O)C(C)/C4=C\C)c(C)c3CCC(=O)O)/C(CC(=O)O)=C2C)NC1=O (configuration not stated)?
GI50 (HCC 2998): > 100 µM (inactive); GI50 (UACC-257): > 100 µM (inactive); GI50 (NCI-H226): > 100 µM (inactive); GI50 (MOLT-4): > 100 µM (inactive); GI50 (HCT-116): > 100 µM (inactive); GI50 (OVCAR-3): > 100 µM (inactive); GI50 (NCI-H460): > 100 µM (inactive); GI50 (EKVX): > 100 µM (inactive); GI50 (SN12C): > 100 µM (inactive); GI50 (NCI-H23): > 100 µM (inactive); GI50 (HCT-15): > 100 µM; GI50 (HL-60): > 100 µM (inactive); GI50 (SF-295): > 100 µM (inactive); GI50 (Malme-3M): > 100 µM (inactive); GI50 (SF-539): > 100 µM (inactive); GI50 (NCI-H522): > 100 µM (inactive); GI50 (OVCAR-8): > 100 µM (inactive)

With O=C1c2ccccc2C(=O)N1n1c(Cc2ccc([N+](=O)[O-])cc2)n[nH]c1=O as the compound, how does the GI50 (HCC 2998) read?
The GI50 was > 100 µM (inactive).

And the GI50 (UACC-257)?
Its GI50 is > 100 µM (inactive).

What about the GI50 (NCI-H226) of the same compound?
The GI50 was > 100 µM (inactive).

What about the GI50 (MOLT-4) of the same compound?
Its GI50 is > 100 µM (inactive).

And the GI50 (HCT-116)?
The GI50 was > 100 µM (inactive).

And the GI50 (OVCAR-3)?
Its GI50 is > 100 µM (inactive).

And the GI50 (NCI-H460)?
The GI50 was > 100 µM (inactive).

What about the GI50 (SN12C) of the same compound?
Its GI50 is > 100 µM (inactive).

What about the GI50 (NCI-H23) of the same compound?
Its GI50 is > 100 µM (inactive).

What about the GI50 (HCT-15) of the same compound?
Its GI50 is greater than 100 µM.

And the GI50 (SF-295)?
The GI50 was > 100 µM (inactive).

What about the GI50 (MDA-N) of the same compound?
The GI50 was > 100 µM (inactive).

What about the GI50 (Malme-3M) of the same compound?
The GI50 was > 100 µM (inactive).

And the GI50 (SF-539)?
Its GI50 is > 100 µM (inactive).

What about the GI50 (MCF7) of the same compound?
Its GI50 is > 100 µM (inactive).

What about the GI50 (NCI-H522) of the same compound?
The GI50 was > 100 µM (inactive).

What about the GI50 (OVCAR-8) of the same compound?
Its GI50 is > 100 µM (inactive).

Cc1ccc(NC(=O)CC2C(=O)Nc3ccccc3S2(=O)=O)cc1C (configuration not stated) was tested. Which GI50 (HCC 2998) did it give?
Its GI50 is > 100 µM (inactive).

What about the GI50 (UACC-257) of the same compound?
The GI50 was > 100 µM (inactive).

What about the GI50 (NCI-H226) of the same compound?
Its GI50 is > 100 µM (inactive).

And the GI50 (MOLT-4)?
Its GI50 is > 100 µM (inactive).

What about the GI50 (HCT-116) of the same compound?
Its GI50 is > 100 µM (inactive).

What about the GI50 (OVCAR-3) of the same compound?
The GI50 was > 100 µM (inactive).

What about the GI50 (NCI-H460) of the same compound?
Its GI50 is > 100 µM (inactive).

What about the GI50 (EKVX) of the same compound?
The GI50 was > 100 µM (inactive).

What about the GI50 (SN12C) of the same compound?
The GI50 was > 100 µM (inactive).

What about the GI50 (NCI-H23) of the same compound?
Its GI50 is > 100 µM (inactive).

What about the GI50 (HCT-15) of the same compound?
The GI50 was greater than 100 µM.

And the GI50 (HL-60)?
Its GI50 is > 100 µM (inactive).

And the GI50 (SF-295)?
Its GI50 is > 100 µM (inactive).

What about the GI50 (Malme-3M) of the same compound?
Its GI50 is > 100 µM (inactive).

And the GI50 (SF-539)?
Its GI50 is > 100 µM (inactive).

And the GI50 (NCI-H522)?
Its GI50 is > 100 µM (inactive).

What about the GI50 (OVCAR-8) of the same compound?
The GI50 was > 100 µM (inactive).

CC#CC(O)(C(=O)OC1CC(C)N(C)C(C)(C)C1)C1CCCC1 (configuration not stated) was tested. Which GI50 (HCC 2998) did it give?
Its GI50 is > 100 µM (inactive).

What about the GI50 (UACC-257) of the same compound?
The GI50 was > 100 µM (inactive).

And the GI50 (NCI-H226)?
The GI50 was > 100 µM (inactive).

And the GI50 (MOLT-4)?
Its GI50 is > 100 µM (inactive).

What about the GI50 (HCT-116) of the same compound?
The GI50 was > 100 µM (inactive).

What about the GI50 (OVCAR-3) of the same compound?
Its GI50 is > 100 µM (inactive).

And the GI50 (EKVX)?
Its GI50 is > 100 µM (inactive).

And the GI50 (SN12C)?
Its GI50 is > 100 µM (inactive).

And the GI50 (NCI-H23)?
The GI50 was > 100 µM (inactive).

What about the GI50 (HCT-15) of the same compound?
Its GI50 is greater than 100 µM.

And the GI50 (HL-60)?
Its GI50 is > 100 µM (inactive).

And the GI50 (SF-295)?
The GI50 was > 100 µM (inactive).

What about the GI50 (MDA-N) of the same compound?
Its GI50 is > 100 µM (inactive).

What about the GI50 (Malme-3M) of the same compound?
Its GI50 is > 100 µM (inactive).

And the GI50 (SF-539)?
Its GI50 is > 100 µM (inactive).

And the GI50 (MCF7)?
The GI50 was > 100 µM (inactive).

What about the GI50 (NCI-H522) of the same compound?
Its GI50 is > 100 µM (inactive).

And the GI50 (OVCAR-8)?
Its GI50 is > 100 µM (inactive).

For O=c1cc(N2CCCC2)[nH]c(=O)n1Cc1ccccc1, which GI50 (HCC 2998) is on record?
Its GI50 is 8.55 µM (inactive).

And the GI50 (UACC-257)?
Its GI50 is > 100 µM (inactive).

And the GI50 (NCI-H226)?
Its GI50 is 55.3 µM (inactive).

What about the GI50 (MOLT-4) of the same compound?
The GI50 was > 100 µM (inactive).

What about the GI50 (HCT-116) of the same compound?
The GI50 was > 100 µM (inactive).

And the GI50 (NCI-H460)?
The GI50 was > 100 µM (inactive).

What about the GI50 (EKVX) of the same compound?
Its GI50 is > 100 µM (inactive).

And the GI50 (SN12C)?
Its GI50 is > 100 µM (inactive).

What about the GI50 (NCI-H23) of the same compound?
The GI50 was > 100 µM (inactive).

And the GI50 (HCT-15)?
Its GI50 is greater than 100 µM.

What about the GI50 (HL-60) of the same compound?
The GI50 was > 100 µM (inactive).

What about the GI50 (SF-295) of the same compound?
The GI50 was > 100 µM (inactive).

What about the GI50 (Malme-3M) of the same compound?
Its GI50 is > 100 µM (inactive).

And the GI50 (SF-539)?
Its GI50 is > 100 µM (inactive).

And the GI50 (MCF7)?
Its GI50 is > 100 µM (inactive).

And the GI50 (NCI-H522)?
Its GI50 is > 100 µM (inactive).

And the GI50 (OVCAR-8)?
Its GI50 is > 100 µM (inactive).

For Cc1ccccc1-n1c(=S)[nH]c2c(sc(=O)n2-c2ccccc2C)c1=O, which GI50 (HCC 2998) is on record?
The GI50 was > 100 µM (inactive).

What about the GI50 (UACC-257) of the same compound?
The GI50 was > 100 µM (inactive).

What about the GI50 (NCI-H226) of the same compound?
The GI50 was > 100 µM (inactive).

And the GI50 (MOLT-4)?
The GI50 was > 100 µM (inactive).

And the GI50 (HCT-116)?
The GI50 was > 100 µM (inactive).

What about the GI50 (OVCAR-3) of the same compound?
The GI50 was > 100 µM (inactive).

What about the GI50 (NCI-H460) of the same compound?
The GI50 was > 100 µM (inactive).

What about the GI50 (EKVX) of the same compound?
The GI50 was > 100 µM (inactive).

What about the GI50 (SN12C) of the same compound?
The GI50 was > 100 µM (inactive).

What about the GI50 (NCI-H23) of the same compound?
Its GI50 is > 100 µM (inactive).

What about the GI50 (HCT-15) of the same compound?
Its GI50 is greater than 100 µM.

And the GI50 (HL-60)?
The GI50 was > 100 µM (inactive).

What about the GI50 (SF-295) of the same compound?
The GI50 was > 100 µM (inactive).

And the GI50 (Malme-3M)?
The GI50 was > 100 µM (inactive).

What about the GI50 (SF-539) of the same compound?
Its GI50 is > 100 µM (inactive).

And the GI50 (NCI-H522)?
Its GI50 is > 100 µM (inactive).

What about the GI50 (OVCAR-8) of the same compound?
The GI50 was > 100 µM (inactive).
